Data taken from publication PMC10531346, “Structural Similarities and Overlapping Activities among Dihydroflavonol 4-Reductase, Flavanone 4-Reductase, and Anthocyanidin Reductase Offer Metabolic Flexibility in the Flavonoid Pathway” (International Journal of Molecular Sciences, 2023).
Values joined by “and” are separate entries in the source; they are usually repeats but may differ in a detail not shown here. Equal entries are not always repeated. Where two headings read alike, the source gives them in different places.

How the values were obtained:
[1] = target: PvDFRa WT (Panicum virgatum, UniProt A0A8T0SQV2); assay: Enzyme kinetic assay, wild-type PvDFRa; format: biochemical; conditions: for substrate inhibition at higher substrate concentrations: KI much greater than Km, could not be quantified
Experimental: (§1) Kinetic Assays of PvDFRa, SbDFR3, mutant PvDFRa, and SbFNRs: DFR was purified to the same purity as used in crystallization. Enzymatic assay followed the methodology previously reported with small changes. A solution of 0.1 M potassium phosphate at pH 7.0 was utilized, and substrate concentration was varied from 5 µM to 800 µM. The reaction was initiated with 0.05 mg enzyme in a total reaction volume of 200 µL. […] The reaction proceeded for 15 min. at 25 °C and was terminated by the addition of 600 µL 95:5 (v/v) n-butanol:HCl. […] The reactions were centrifuged for 15 min. at 14,000× g and the supernatant was used to determine product concentrations with a GENESYS™ 10S UV-Vis Spectrophotometer (Thermo Scientific, Waltham, MA, USA). The absorbances of cyanidin delphinidin and pelargonidin were measured at 550, 550, and 528 nm, respectively. The concentrations were determined based on calibrations with reference compounds (Figure S12). […] Data analysis was conducted utilizing GraphPad Prism 8.0.2 using linear regression to model the appropriate model. Error in each data point is shown utilizing the standard deviation.

[2] = tested on: O=C1c2c(O)cc(O)cc2O[C@H](c2cc(O)c(O)c(O)c2)[C@H]1O; assay: purified protein, by the assay type; conditions: other: NADPH 2 mM
[3] = tested on: O=C1c2c(O)cc(O)cc2OC(c2ccc(O)c(O)c2)[C@H]1O; assay: purified protein, by the assay type; conditions: other: NADPH 2 mM
[4] = tested on: O=C1C[C@@H](c2ccc(O)cc2)Oc2cc(O)cc(O)c21; assay: purified protein, by the assay type; conditions: other: NADPH 2 mM
[5] = target: T1, PvDFRa (Panicum virgatum, UniProt A0A8T0SQV2); assay: Isothermal titration calorimetry, PvDFRa; format: binding; conditions: for ∆H / ∆S: ITC, 298 K
Experimental: In order to obtain thermodynamic parameters for the association, isothermal titration calorimetry (ITC) for PvDFRa was performed (Figure S8, Table 2).
Isothermal Titration Calorimetry: Purified PvDFR was dialyzed to a buffer containing 50 mM Bis-Tris, 50 mM Tricine (pH 6.5), 200 mM NaCl and 2.5% (v/v) glycerol. Substrates were dissolved in the same buffer used for enzyme dialysis. Analysis was conducted utilizing a Microcal ITC 200 (Malvern). […] A total of 22 injections were made, each with a volume of 2 uL. Data analysis was conducted utilizing Origin Software 7 and modeled to the appropriate nonlinear regression.

[6] = tested on: SbANR; assay: SbANR activity assay (dihydroflavonols, flavanones, anthocyanidins); format: biochemical, Sorghum bicolor; conditions: in words
[7] = target: SbFNR1 (Sorghum bicolor, UniProt C5YGL7); assay: SbFNR1 activity assay (dihydroflavonols, flavanones, anthocyanidins); format: biochemical; conditions: for product yield compared to PvDFRa and SbDFR3: flavanones, long incubation; for activity of SbFNR1 against the substrate: in words
[8] = tested on: SbFNR2; assay: SbFNR2 activity assay (dihydroflavonols, flavanones, anthocyanidins); format: biochemical, Sorghum bicolor; conditions: for activity of SbFNR2 against the substrate: in words
[9] = target: T1, PvDFRa; format: biochemical
Experimental: The referenced Vmax and Km values were used to make a nonlinear regression. […] Five µL of the reaction was injected into a reversed-phase HPLC column XBridge Peptide BEH C18 (Waters, Milford, MA, USA). Acetonitrile:water was used as the mobile phase, using a gradient in the concentration of acetonitrile from 5% (v/v) to 100%.

[10] = target: PvDFRa Q242A (Panicum virgatum, UniProt A0A8T0SQV2, Q242A); assay: Enzyme kinetic assay, PvDFRa Q242A mutant; format: biochemical; conditions: for kcat: NADPH 2 mM
Experimental: (§2) Site-directed mutagenesis was conducted using primers generated with the QuikChange Primer Design (Agilent Santa Clara, CA USA).
as §1

[11] = target: PvDFRa T143S (Panicum virgatum, UniProt A0A8T0SQV2, T143S); assay: Enzyme kinetic assay, PvDFRa T143S mutant; format: biochemical; conditions: relative to wild-type PvDFRa
Experimental: as §2, §1

[12] = target: SbDFR3 (Sorghum bicolor, UniProt C5XVF8); assay: Enzyme kinetic assay, SbDFR3; conditions: NADPH 2 mM
Experimental: as §1

[13] = tested on: O=C1c2c(O)cc(O)cc2O[C@H](c2ccc(O)cc2)[C@H]1O; assay: purified protein, by the assay type; conditions: other: NADPH 2 mM

## NADH
[1]; NADH utilized instead of NADPH
  enzyme efficiency with NADH relative to NADPH: 60.55%

## SbDFR3 (Sorghum bicolor)
[2]; pH 7.0
  Km: 118.5 ± 0.2885 µM
  kcat: 0.0773 s⁻¹
  kcat/Km: 653 M⁻¹ s⁻¹
[3]; pH 7.0
  Km: 166.4 ± 28.8 µM
  kcat: 0.0633 s⁻¹
  kcat/Km: 380 M⁻¹ s⁻¹
[4]; pH 7.0
  Km: 118.2 ± 14.92 µM
  kcat: 0.0347 ± 0.00145 s⁻¹
  kcat/Km: 294 M⁻¹ s⁻¹

## O=C1C[C@@H](c2ccc(O)cc2)Oc2cc(O)cc(O)c21 [Naringenin, naringenin]
[5]
  Kd: 177 ± 25.3 µM
  ∆H: -4.82 ± 0.39 kcal/mol
  ∆S: 0.986 Cal mol^−1 K^−1
[6]
  activity of SbANR against the substrate: did not display any activity
[7]
  product yield compared to PvDFRa and SbDFR3: ~ 3%
[1]
  substrate inhibition at higher substrate concentrations: substrate inhibition occurred
[1]; NADPH 2 mM
  kcat for flavanones, given for PvDFRa: 0.03473 s⁻¹
[1]; NADPH 2 mM, pH 7.0, 25 °C
  kcat: 0.05915 s⁻¹
[8]
  activity of SbFNR2 against the substrate: did not display any activity

## O=c1c(O)c(-c2ccc(O)c(O)c2)oc2cc(O)cc(O)c12 [quercetin]
[9]; 500 µM quercetin, 2 mM NADPH, 30 min, HPLC
  substrate of PvDFRa or not: not a substrate
[9]; DHM as substrate
  type of inhibition of PvDFRa: noncompetitive inhibition
[9]; DHM as substrate, 75 μM quercetin
  Vmax: 4.193 min⁻¹
[9]; DHM as substrate, 150 μM quercetin
  Vmax: 3.545 min⁻¹

## O=C1c2c(O)cc(O)cc2O[C@H](c2ccc(O)c(O)c2)[C@H]1O [DHQ, dihydroquercetin]
[10]
  kcat: 0.04285 s⁻¹
[11]
  increased catalytic efficiency of T143S mutant: 3.53 fold
[5]
  Kd: 16.9 ± 4.35 µM
  ∆H: -10.77 ± 0.18 kcal/mol
  ∆S: −13.7 Cal mol^−1 K^−1
[6]
  activity of SbANR against the substrate: no significant activity
[7]
  activity of SbFNR1 against the substrate: no significant activity
[1]
  substrate inhibition at higher substrate concentrations: substrate inhibition was observed
[8]
  activity of SbFNR2 against the substrate: no significant activity
[12]
  kcat: 0.06325 s⁻¹

## O=C1C[C@@H](c2ccc(O)c(O)c2)Oc2cc(O)cc(O)c21 [Eriodictyol, eriodictyol]
[5]
  Kd: 64.9 ± 11.8 µM
  ∆H: -6.23 ± 0.28 kcal/mol
  ∆S: −1.74 Cal mol^−1 K^−1
[6]
  activity of SbANR against the substrate: did not display any activity
[7]
  product yield compared to PvDFRa and SbDFR3: ~ 3%
[1]
  substrate inhibition at higher substrate concentrations: substrate inhibition occurred
[1]; NADPH 2 mM
  kcat for flavanones, given for PvDFRa: 0.00206 s⁻¹
[1]; NADPH 2 mM, pH 7.0, 25 °C
  Km: 246 ± 224 µM
  kcat: 0.01414 ± 0.00932 s⁻¹
[1]; NADPH 2 mM, pH 7.0, 25 °C, listed as eriodictyol
  kcat: 0.01414 s⁻¹
[8]
  activity of SbFNR2 against the substrate: did not display any activity
[12]
  Km: 40.7 ± 31.9 µM
  kcat: 0.00206 ± 0.000183 s⁻¹
[12]; read-out: Km
  Km: 25.2 µM

## PvDFRa Q242A (Panicum virgatum; Q242A)
[13]; pH 7.0
  Km: 74.59 ± 62.70 µM
  kcat: 0.00783 s⁻¹
  kcat/Km: 105 M⁻¹ s⁻¹
[2]; pH 7.0
  Km: 119.2 ± 87.86 µM
  kcat: 0.0379 s⁻¹
  kcat/Km: 318 M⁻¹ s⁻¹
[3]; pH 7.0
  Km: 156.8 ± 121.41 µM
  kcat: 0.0428 s⁻¹
  kcat/Km: 273 M⁻¹ s⁻¹

## Oc1cc(O)c2cc(O)c(-c3cc(O)c(O)c(O)c3)[o+]c2c1 [delphinidin]
[6]
  activity of SbANR against the substrate: showed activity
[7]
  activity of SbFNR1 against the substrate: neither SbFNR1 nor SbFNR2 displayed any activity
[8]
  activity of SbFNR2 against the substrate: neither SbFNR1 nor SbFNR2 displayed any activity

## O=C1c2c(O)cc(O)cc2O[C@H](c2cc(O)c(O)c(O)c2)[C@H]1O [DHM, dihydromyricetin]
[10]
  kcat: 0.03788 s⁻¹
[5]
  Kd: 21.2 ± 3.26 µM
  ∆H: -9.10 ± 2.45 kcal/mol
  ∆S: −9.14 Cal mol^−1 K^−1
[6]
  activity of SbANR against the substrate: no significant activity
[7]
  activity of SbFNR1 against the substrate: no significant activity
[1]
  substrate inhibition at higher substrate concentrations: substrate inhibition was observed
[8]
  activity of SbFNR2 against the substrate: no significant activity
[12]
  kcat: 0.07733 s⁻¹

## PvDFRa WT (Panicum virgatum)
[13]; pH 7.0, 25 °C, 25.0 °C
  kcat: 0.0121 s⁻¹
  kcat/Km: 63.2 M⁻¹ s⁻¹
[2]; pH 7.0, 25 °C, 25.0 °C
  Km: 150.0 ± 56.9 µM
  kcat: 0.0377 s⁻¹
  kcat/Km: 251 M⁻¹ s⁻¹
[3]; pH 7.0, 25 °C, 25.0 °C
  Km: 128.6 ± 14.3 µM
  kcat: 0.0559 s⁻¹
  kcat/Km: 435 M⁻¹ s⁻¹
[4]; pH 7.0, 25 °C, 25.0 °C
  Km: 407.6 ± 223.6 µM
  kcat: 0.0592 s⁻¹
  kcat/Km: 145 M⁻¹ s⁻¹

## Oc1ccc([C@H]2Oc3cc(O)cc(O)c3C[C@H]2O)cc1 [epiafzelchin]
[8]; anthocyanidin reduction
  efficiency relative to the activity of SbANR: 43%

## PvDFRa T143S (Panicum virgatum; T143S)
[13]; pH 7.0
  Km: 137.7 ± 36.00 µM
  kcat: 0.00956 s⁻¹
  kcat/Km: 69.3 M⁻¹ s⁻¹
[2]; pH 7.0
  Km: 7.409 ± 0.2465 µM
  kcat: 0.0176 s⁻¹
  kcat/Km: 2380 M⁻¹ s⁻¹
[3]; pH 7.0
  Km: 19.04 ± 11.21 µM
  kcat: 0.0293 s⁻¹
  kcat/Km: 1540 M⁻¹ s⁻¹

## O=C1c2c(O)cc(O)cc2O[C@H](c2ccc(O)cc2)[C@H]1O [DHK, dihydrokaempferol]
[10]
  kcat: 0.007835 s⁻¹
[10]; relative to wild-type PvDFRa
  higher catalytic efficiency of Q242A mutant: 1.7 fold
[11]
  increased catalytic efficiency of T143S mutant: 1.09 fold
[5]
  Kd: 26.4 ± 2.26 µM
  ∆H: -6.19 ± 5.54 kcal/mol
  ∆S: 0.854 Cal mol^−1 K^−1
[6]
  activity of SbANR against the substrate: no significant activity
[7]
  activity of SbFNR1 against the substrate: no significant activity
[1]
  substrate inhibition at higher substrate concentrations: substrate inhibition was observed
[8]
  activity of SbFNR2 against the substrate: no significant activity
[12]
  Km: 118 ± 22.6 µM
  kcat: 0.0101 s⁻¹ and 0.0101 ± 0.00852 s⁻¹
